Data from US20260248774A1, “INHIBITORS OF BACTERIAL TYPE III SECRETION SYSTEM” (MICROBIOTIX, INC., priority 2022, published 2026).

Legend:
[1] = Mammalian cytotoxicity (CC50), MTS conversion; format: cell-based, human; settings: human, HeLa cells, Table 1; HeLa; read-out: Cytotox-HeLa CC50
Description: Determination of Mammalian Cytotoxicity.
Following incubation for 3 days at 37° C. in VP-SFM, cell viability was measured with the vital tetrazolium salt stain 3-(4,5-dimethylthiazol-2-yl)-2,5 diphenyltetrazolium bromide according to the manufacturer's instructions (Promega, Madison, Wisconsin). Values were determined in triplicate using dilutions of inhibitory compound from 100 μM to 0.2 μM.

[2] = test system: panel of human cytochrome P450s (1A2, 2C19, 2C9, 2D6, 3A4), receptors, transporters and ion channels; experiment: in vitro
[3] = test system: P. aeruginosa T3SS-mediated secretion (exoT-luxCDABE reporter strain MDM852); experiment: Luciferase (exoT-lux) transcriptional reporter assay of T3SS-mediated secretion; format: cell-based, Pseudomonas aeruginosa; settings: read-out: LUX Sec IC50; Table 1
Text: Luciferase Transcriptional Reporter Assay of T3SS-Mediated Secretion with a Luminescent Signal.
A transcriptional fusion of the Photorhabdus luminescens lux operon (luxCDABE) to P. aeruginosa PAO1 T3SS effector gene exoT (PA0044) was constructed and used to build strain MDM852 as described previously (Aiello et al., 2010, Antimicrob Agents Chemother, 54:1988-1999). Induction of T3SS operons by Ca^++ depletion due to EGTA addition results in secretion of the T3SS negative regulator ExsE and the production of high levels of T3SS components including the luxCDABE gene products, which results in luminescence that is easily detected by a microplate reader. Inhibition of T3SS-mediated secretion of the negative regulator ExsE by a small molecule inhibitor causes reduced production of luxCDABE gene products and reduced luminescence. For inhibitor IC50 testing, compounds were added to a 96-well microplate in a concentration dilution series. Reporter strain MDM852 was grown at 37° C. in LBG to OD600 ~0.025-0.05, transferred into the microplate (50 uL/well) containing test compounds and EGTA (5 uL of 0.1 M stock solution), which was covered with a translucent gas-permeable seal (Abgene, Inc., Cat. No. AB-0718). […] Plates were incubated at room temperature for 300 min. Then, luminescence was measured in an Envision Multilabel microplate reader (PerkinElmer). The screening window coefficient, Z′-factor (see Zhang, et al., 1999, J. Biomol. Screen., 4:67-73), defined as the ratio of the positive and negative control separation band to the signal dynamic range of the assay, averaged 0.7 for the assay.

CYP450 3A4 = CYP450 3A4 (Homo sapiens, UniProt P08684); experiment: Cytochrome P450 inhibition, CYP3A4 (Eurofins Panlabs panel); format: in vitro ADME; settings: assayed at 10 μM
Sequence of CYP450 3A4 (P08684 whole entry): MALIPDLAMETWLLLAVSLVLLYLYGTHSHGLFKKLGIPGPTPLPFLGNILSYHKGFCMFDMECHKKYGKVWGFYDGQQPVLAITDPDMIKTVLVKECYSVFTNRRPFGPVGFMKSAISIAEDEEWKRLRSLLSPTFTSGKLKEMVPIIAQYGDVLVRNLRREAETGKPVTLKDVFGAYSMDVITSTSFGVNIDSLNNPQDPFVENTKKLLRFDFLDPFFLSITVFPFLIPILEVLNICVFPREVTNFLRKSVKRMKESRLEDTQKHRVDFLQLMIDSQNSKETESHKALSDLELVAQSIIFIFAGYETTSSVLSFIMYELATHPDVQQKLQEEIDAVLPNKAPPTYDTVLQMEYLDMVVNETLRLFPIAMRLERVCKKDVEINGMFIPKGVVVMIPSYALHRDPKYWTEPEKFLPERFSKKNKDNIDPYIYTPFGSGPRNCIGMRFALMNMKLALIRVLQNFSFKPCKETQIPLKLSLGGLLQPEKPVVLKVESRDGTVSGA
Description: (§1) Cytochrome P450 Inhibition.
(§2) Assessment of off-target effects of priority compounds. To assess potential off-target effects, we will evaluate prioritized hits validated by in vivo testing in the Eurofins Panlabs HitProfilingScreen+CYP450 assay panel, which is performed by Eurofins as a fee for service. The assay panel of consists of assays for 30 receptors and transporters plus the five major CYP450 enzymes (1A2, 2C19, 2C9, 2D6, 3A4).

[4] = test system: T3SS-mediated translocation of ExoU by P. aeruginosa strain MDM1561 (PA99U) into CHO cells; experiment: P. aeruginosa ExoU-dependent CHO cell killing assay for T3SS-mediated translocation; format: cell-based, Pseudomonas aeruginosa; settings: read-out: Translocation EC50; Table 1
Text: P. aeruginosa ExoU-Dependent CHO Cell Killing.

[5] = target: panel of human cytochrome P450s, receptors, and ion channels (Rattus norvegicus, UniProt P15823); settings: assayed at 10 μM
[6] = target: panel of human cytochrome P450s, receptors, and ion channels (Homo sapiens, UniProt Q99720); settings: assayed at 10 μM
[7] = target: panel of human cytochrome P450s, receptors, and ion channels (Homo sapiens, UniProt P07550); settings: assayed at 10 μM
[8] = target: panel of human cytochrome P450s, receptors, and ion channels (Homo sapiens, UniProt P14416); settings: assayed at 10 μM
[9] = target: panel of human cytochrome P450s, receptors, and ion channels (Homo sapiens, UniProt P21554); settings: assayed at 10 μM
Sequence of panel of human cytochrome P450s, receptors, and ion channels (Homo sapiens, UniProt P21554) (P21554 whole entry): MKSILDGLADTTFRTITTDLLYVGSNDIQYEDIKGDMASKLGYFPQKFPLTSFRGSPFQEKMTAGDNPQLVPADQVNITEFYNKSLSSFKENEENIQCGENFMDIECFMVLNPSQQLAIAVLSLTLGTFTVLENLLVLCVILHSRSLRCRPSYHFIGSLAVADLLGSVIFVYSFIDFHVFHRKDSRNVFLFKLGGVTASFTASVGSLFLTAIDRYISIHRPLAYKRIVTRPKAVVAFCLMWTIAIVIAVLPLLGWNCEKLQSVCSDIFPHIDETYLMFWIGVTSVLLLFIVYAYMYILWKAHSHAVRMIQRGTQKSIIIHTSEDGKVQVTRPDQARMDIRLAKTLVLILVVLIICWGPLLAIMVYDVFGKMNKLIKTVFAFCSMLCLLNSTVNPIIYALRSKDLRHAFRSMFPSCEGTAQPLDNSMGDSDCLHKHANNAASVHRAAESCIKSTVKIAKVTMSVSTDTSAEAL

[10] = target: panel of human cytochrome P450s, receptors, and ion channels (Homo sapiens, UniProt P35372); settings: assayed at 10 μM
[11] = target: panel of human cytochrome P450s, receptors, and ion channels (Homo sapiens, UniProt P02708); settings: assayed at 10 μM
[12] = target: panel of human cytochrome P450s, receptors, and ion channels (Homo sapiens, UniProt P08588); settings: assayed at 10 μM
Sequence of panel of human cytochrome P450s, receptors, and ion channels (Homo sapiens, UniProt P08588) (P08588 whole entry): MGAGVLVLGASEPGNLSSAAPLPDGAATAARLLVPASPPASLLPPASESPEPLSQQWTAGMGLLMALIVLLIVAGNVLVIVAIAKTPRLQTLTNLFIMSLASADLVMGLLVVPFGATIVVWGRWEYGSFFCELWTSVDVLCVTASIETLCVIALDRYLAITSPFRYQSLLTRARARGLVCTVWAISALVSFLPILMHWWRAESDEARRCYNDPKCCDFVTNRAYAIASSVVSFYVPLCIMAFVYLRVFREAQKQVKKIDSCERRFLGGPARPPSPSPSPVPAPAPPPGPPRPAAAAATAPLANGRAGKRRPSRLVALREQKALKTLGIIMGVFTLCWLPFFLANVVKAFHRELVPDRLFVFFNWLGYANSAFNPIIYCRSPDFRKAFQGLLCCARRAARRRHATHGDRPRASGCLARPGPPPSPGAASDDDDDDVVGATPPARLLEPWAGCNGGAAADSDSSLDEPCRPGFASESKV

[13] = target: panel of human cytochrome P450s, receptors, and ion channels (Homo sapiens, UniProt P35408); settings: assayed at 10 μM
Sequence of panel of human cytochrome P450s, receptors, and ion channels (Homo sapiens, UniProt P35408) (P35408 whole entry): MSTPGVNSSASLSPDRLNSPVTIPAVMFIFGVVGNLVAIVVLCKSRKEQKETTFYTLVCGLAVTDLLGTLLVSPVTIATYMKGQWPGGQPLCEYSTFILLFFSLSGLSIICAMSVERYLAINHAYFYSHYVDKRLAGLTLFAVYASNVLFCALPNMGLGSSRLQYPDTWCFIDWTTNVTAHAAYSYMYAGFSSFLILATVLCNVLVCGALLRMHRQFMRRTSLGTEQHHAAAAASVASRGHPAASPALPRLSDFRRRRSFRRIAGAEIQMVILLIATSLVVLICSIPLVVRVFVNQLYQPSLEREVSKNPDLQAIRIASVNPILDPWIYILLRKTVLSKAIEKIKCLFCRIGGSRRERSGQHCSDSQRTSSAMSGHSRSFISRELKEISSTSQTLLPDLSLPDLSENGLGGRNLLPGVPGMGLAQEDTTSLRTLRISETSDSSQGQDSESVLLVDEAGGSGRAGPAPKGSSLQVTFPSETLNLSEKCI

[14] = target: panel of human cytochrome P450s, receptors, and ion channels (Homo sapiens, UniProt P29274); settings: assayed at 10 μM
[15] = target: panel of human cytochrome P450s, receptors, and ion channels (Homo sapiens, UniProt P41595); settings: assayed at 10 μM
Sequence of panel of human cytochrome P450s, receptors, and ion channels (Homo sapiens, UniProt P41595) (P41595 whole entry): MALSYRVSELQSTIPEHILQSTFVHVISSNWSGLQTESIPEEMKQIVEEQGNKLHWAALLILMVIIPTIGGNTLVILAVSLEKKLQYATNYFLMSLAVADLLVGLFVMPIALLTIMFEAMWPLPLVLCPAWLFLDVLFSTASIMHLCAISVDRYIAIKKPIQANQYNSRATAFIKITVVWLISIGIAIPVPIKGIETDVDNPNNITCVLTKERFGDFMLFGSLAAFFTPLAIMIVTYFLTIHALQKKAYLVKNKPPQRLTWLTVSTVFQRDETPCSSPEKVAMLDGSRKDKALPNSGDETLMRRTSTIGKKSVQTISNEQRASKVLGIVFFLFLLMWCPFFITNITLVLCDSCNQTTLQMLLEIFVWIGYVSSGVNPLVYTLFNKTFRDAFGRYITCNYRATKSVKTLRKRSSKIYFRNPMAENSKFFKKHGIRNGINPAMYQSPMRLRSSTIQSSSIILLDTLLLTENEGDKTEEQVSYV

[16] = target: panel of human cytochrome P450s, receptors, and ion channels (Rattus norvegicus, UniProt P43140); settings: assayed at 10 μM
Sequence of panel of human cytochrome P450s, receptors, and ion channels (Rattus norvegicus, UniProt P43140) (P43140 whole entry): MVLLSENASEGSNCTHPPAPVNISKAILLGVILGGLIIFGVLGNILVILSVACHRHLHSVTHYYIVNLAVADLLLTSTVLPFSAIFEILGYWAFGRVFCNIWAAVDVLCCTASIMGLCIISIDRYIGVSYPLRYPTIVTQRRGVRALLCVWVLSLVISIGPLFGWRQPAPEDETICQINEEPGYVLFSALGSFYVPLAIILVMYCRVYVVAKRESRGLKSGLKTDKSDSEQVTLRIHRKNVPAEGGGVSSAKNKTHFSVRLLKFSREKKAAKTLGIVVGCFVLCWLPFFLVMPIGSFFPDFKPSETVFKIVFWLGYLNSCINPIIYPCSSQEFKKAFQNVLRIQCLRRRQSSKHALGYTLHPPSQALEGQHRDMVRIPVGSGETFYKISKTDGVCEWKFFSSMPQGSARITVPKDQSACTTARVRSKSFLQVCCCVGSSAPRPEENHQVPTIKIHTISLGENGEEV

[17] = target: panel of human cytochrome P450s, receptors, and ion channels (Homo sapiens, UniProt P08913); settings: assayed at 10 μM
Sequence of panel of human cytochrome P450s, receptors, and ion channels (Homo sapiens, UniProt P08913) (P08913 whole entry): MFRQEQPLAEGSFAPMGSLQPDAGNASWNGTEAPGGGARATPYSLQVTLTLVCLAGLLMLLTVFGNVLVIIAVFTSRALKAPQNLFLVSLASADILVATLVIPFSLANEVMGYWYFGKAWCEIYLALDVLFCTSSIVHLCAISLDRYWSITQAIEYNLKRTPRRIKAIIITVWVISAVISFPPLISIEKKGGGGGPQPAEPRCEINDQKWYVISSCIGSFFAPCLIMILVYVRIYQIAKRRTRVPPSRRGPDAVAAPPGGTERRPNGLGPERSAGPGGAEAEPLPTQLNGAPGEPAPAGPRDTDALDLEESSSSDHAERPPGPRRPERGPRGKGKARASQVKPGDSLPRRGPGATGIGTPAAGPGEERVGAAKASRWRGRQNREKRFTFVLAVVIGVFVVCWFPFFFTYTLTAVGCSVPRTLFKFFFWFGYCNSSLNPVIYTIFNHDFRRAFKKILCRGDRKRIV

CYP450 2C19 = CYP450 2C19 (Homo sapiens, UniProt P33261); experiment: Cytochrome P450 inhibition, CYP2C19 (Eurofins Panlabs panel); format: in vitro ADME; settings: assayed at 10 μM
Sequence of CYP450 2C19 (P33261 whole entry): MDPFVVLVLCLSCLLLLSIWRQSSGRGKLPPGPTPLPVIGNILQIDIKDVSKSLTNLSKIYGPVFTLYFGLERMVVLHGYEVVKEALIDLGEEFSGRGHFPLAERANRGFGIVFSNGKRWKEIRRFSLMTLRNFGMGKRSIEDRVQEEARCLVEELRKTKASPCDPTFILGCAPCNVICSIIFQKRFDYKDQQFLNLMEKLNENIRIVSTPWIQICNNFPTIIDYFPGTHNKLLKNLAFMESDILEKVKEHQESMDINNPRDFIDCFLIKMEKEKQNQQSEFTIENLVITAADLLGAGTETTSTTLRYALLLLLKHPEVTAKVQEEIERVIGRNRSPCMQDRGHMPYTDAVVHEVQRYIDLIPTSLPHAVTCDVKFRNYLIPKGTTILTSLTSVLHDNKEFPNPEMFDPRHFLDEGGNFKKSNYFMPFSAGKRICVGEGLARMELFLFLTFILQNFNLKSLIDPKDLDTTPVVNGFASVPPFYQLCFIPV
Description: as §1, §2

hERG = hERG (Homo sapiens, UniProt Q12809); experiment: hERG inhibition
Sequence of hERG (Q12809 whole entry): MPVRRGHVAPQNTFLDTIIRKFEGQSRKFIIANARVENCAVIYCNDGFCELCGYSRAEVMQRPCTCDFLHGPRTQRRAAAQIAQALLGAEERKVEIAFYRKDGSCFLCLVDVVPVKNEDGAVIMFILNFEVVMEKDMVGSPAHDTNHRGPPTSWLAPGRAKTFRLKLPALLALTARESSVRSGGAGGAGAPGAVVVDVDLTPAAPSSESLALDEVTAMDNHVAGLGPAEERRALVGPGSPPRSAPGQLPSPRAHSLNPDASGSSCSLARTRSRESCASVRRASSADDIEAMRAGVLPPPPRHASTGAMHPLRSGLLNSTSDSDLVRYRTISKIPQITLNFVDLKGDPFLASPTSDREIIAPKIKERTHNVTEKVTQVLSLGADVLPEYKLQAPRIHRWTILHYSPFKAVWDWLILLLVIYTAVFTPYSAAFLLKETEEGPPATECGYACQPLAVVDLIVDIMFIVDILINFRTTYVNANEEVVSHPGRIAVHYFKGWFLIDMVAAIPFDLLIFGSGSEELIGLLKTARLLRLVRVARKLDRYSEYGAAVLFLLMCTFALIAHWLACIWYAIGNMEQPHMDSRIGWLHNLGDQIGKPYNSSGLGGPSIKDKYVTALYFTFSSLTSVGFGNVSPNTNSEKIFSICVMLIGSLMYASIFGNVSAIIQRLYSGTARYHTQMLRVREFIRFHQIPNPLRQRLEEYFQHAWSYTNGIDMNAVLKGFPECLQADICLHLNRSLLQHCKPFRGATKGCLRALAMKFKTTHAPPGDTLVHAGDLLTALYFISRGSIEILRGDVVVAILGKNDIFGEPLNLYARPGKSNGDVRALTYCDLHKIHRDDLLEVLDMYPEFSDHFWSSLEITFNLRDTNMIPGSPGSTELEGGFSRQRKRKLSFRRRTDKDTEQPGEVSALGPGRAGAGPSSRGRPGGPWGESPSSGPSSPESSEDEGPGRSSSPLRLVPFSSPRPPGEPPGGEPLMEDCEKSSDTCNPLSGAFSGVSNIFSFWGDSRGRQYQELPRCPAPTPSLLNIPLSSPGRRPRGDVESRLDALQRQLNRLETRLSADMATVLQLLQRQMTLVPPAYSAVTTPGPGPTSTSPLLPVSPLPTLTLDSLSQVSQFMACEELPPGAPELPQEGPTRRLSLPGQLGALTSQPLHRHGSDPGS

CYP450 2C9 = CYP450 2C9 (Homo sapiens, UniProt P11712); experiment: Cytochrome P450 inhibition, CYP2C9 (Eurofins Panlabs panel); format: in vitro ADME; settings: assayed at 10 μM
Description: as §1, §2

CYP450 2D6 = CYP450 2D6 (Homo sapiens, UniProt P10635); experiment: Cytochrome P450 inhibition, CYP2D6 (Eurofins Panlabs panel); format: in vitro ADME; settings: assayed at 10 μM
Description: as §1, §2

CCC(Oc1ccc(Cl)c(Cl)c1Cl)C(=O)NCc1ccc(F)cc1 (centres unmarked) [MBX-4532]
CC50 at 3 days [1]: > 200 µM
inhibition at 10 µM [2]: > 50%
IC50 [3]: 1.63 µM
CYP450, 3A4 (CYP450 3A4): 13
EC50 [4]: 1.7 µM
Adrenergic α1B [5]: 6
Sigma σ1 [6]: 70
Adrenergic β2 [7]: 14
Dopamine D2S [8]: 11
Cannabinoid CB1 [9]: 16
Opiate μ (OP3, MOP) [10]: 26
Nicotinic Acetylcholine α1, Bungarotoxin [11]: −17
Adrenergic β1 [12]: 2
Prostanoid EP4 [13]: −6
Adenosine A2A [14]: 10
Serotonin (5-Hydroxytryptamine) 5-HT2B [15]: 59
Adrenergic α1A [16]: 12
Adrenergic α2A [17]: 23
CYP450, 2C19 (CYP450 2C19): 80
IC50 (hERG; Table 1, read-out: hERG INH IC50): > 100 µM
Potassium Channel hERG (hERG; assayed at 10 μM): 26
CYP450, 2C9 (CYP450 2C9): −30
CYP450, 2D6 (CYP450 2D6): 0
